Data on three molecules can be found in patent US7524852B2, “Bicyclic pyrimidine derivatives” (Kyowa Hakko Kogyo Co., Ltd., priority 2002, dated 2009).

In this experiment the test system is Hut78 cells. The experiment is described as follows: Inhibitory activity on binding of [125I]-TARC to Hut78 cells. To be noted: [125I]-TARC binding to Hut78 cells; test compound at 1 μmol/L. Here is the method: The RPMI-1640 medium (Sigma-Aldrich Japan) containing 20 mmol/L HEPES [4-(2-hydroxyethyl)-1-piperazinylethanesulfonic acid; HEPES, Nacalai Tesque, Inc.] and 0.1 w/v % bovine serum albumin (SEIKAGAKU CORPORATION) was adjusted to pH 7.0 with sodium hydrogen carbonate (Wako Pure Chemical Industries, Ltd.) to yield a binding/wash buffer. In a 96-well round-bottomed plate (Corning Costar Corporation) were placed 60 μL of a suspension of Hut78 cells (ATCC No. TIB-161) ([…] cells) in the binding/wash buffer, 20 μL of a solution of a test compound and 20 μL of a solution of 810 Bq of [^125I]-TARC (Amersham Biosciences K.K.) diluted with the binding/wash buffer up to the total aliquot of 100 μL, followed by reaction at room temperature for two hours. The solution of the test compound had been prepared by dissolving the test compound in dimethyl sulfoxide (Nacalai Tesque, Inc.) to a concentration of 10 mmol/L, and diluting the solution with the binding/wash buffer to a series of concentrations. The nonspecific binding was determined by a binding assay in the presence of a sufficient amount of unlabeled TARC. The total binding was defined as a binding in the case where dimethyl sulfoxide (Nacalai Tesque, Inc.) was added, instead of the test compound, in the same concentration (0.1 v/v %). […] Microscinti 20 (Packard BioScience Company) was placed in each well at 50 μL/well, and the radioactivity on the glass filter was determined using Topcount NXT™ (Packard BioScience Company). The binding inhibitory rates (%) of the test compounds were determined by calculation according to the following equation:
[formula] Total binding: [^125I]-TARC binding radioactivity without addition of the test compound Binding upon addition of test compound: [^125I]-TARC binding radioactivity at respective concentration upon addition of test compound Nonspecific binding: [^125I]-TARC binding radioactivity upon addition of unlabeled TARC
On to `CCCNC(=O)N1CCc2nc(N3CCN(CC4CN(C)CCO4)CC3)nc(NCc3ccc(Cl)cc3Cl)c2C1` (stereo not drawn) [Compound 15-59], for which the “The Binding Inhibitory Rates at 1 μmol/L” value stood at 90. Regarding `CCNC(=O)N1CCc2nc(N3CCN(C[C@@H]4CN(C)CCO4)CC3)nc(NCc3ccc(Cl)cc3Cl)c2C1` [Compound 15-47], the “The Binding Inhibitory Rates at 1 μmol/L” value came out at 96. For `CCCNC(=O)N1CCc2nc(N3CCN(CC4CN(C)CCO4)CC3)nc(NCc3ccc(Cl)cc3Cl)c2C1` (stereo not drawn) [Compound 15-54], the “The Binding Inhibitory Rates at 1 μmol/L” value turned out to be 97.
